ChEMBL document CHEMBL1149697, “Identification of dissociated non-steroidal glucocorticoid receptor agonists” (Bioorg Med Chem Lett, 2007)
pEC50, pIC50: −log10 of the molar value.

Key:
[1] = molecular target: T1, Glucocorticoid receptor (Homo sapiens, UniProt P04150)
T1 sequence (P04150 whole entry): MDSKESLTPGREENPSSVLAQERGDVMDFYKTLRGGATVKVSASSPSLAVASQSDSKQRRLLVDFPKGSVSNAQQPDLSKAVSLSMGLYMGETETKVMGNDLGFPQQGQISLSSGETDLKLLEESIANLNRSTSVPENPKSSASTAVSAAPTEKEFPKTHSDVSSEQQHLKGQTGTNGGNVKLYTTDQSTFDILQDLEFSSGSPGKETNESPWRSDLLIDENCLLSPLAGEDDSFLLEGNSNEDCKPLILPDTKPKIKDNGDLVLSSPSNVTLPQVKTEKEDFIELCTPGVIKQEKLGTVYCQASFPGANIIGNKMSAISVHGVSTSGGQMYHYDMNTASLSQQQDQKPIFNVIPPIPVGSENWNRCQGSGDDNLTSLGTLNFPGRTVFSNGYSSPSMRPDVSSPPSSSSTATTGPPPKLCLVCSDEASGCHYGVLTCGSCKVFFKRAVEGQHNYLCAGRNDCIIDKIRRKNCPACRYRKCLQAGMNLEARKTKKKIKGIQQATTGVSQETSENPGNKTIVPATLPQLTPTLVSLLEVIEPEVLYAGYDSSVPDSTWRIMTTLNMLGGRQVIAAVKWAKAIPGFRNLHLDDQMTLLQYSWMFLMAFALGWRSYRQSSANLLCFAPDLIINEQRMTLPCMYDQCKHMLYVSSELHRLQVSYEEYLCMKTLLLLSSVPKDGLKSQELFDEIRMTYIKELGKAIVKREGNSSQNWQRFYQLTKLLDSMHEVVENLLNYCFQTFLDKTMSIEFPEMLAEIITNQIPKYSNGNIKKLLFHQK

[2] = molecular target: T2, Mineralocorticoid receptor (Homo sapiens, UniProt P08235); experiment: Displacement of TAMRA labeled dexamethasone at human mineralocorticoid receptor in insect cell
T2 sequence (P08235 whole entry): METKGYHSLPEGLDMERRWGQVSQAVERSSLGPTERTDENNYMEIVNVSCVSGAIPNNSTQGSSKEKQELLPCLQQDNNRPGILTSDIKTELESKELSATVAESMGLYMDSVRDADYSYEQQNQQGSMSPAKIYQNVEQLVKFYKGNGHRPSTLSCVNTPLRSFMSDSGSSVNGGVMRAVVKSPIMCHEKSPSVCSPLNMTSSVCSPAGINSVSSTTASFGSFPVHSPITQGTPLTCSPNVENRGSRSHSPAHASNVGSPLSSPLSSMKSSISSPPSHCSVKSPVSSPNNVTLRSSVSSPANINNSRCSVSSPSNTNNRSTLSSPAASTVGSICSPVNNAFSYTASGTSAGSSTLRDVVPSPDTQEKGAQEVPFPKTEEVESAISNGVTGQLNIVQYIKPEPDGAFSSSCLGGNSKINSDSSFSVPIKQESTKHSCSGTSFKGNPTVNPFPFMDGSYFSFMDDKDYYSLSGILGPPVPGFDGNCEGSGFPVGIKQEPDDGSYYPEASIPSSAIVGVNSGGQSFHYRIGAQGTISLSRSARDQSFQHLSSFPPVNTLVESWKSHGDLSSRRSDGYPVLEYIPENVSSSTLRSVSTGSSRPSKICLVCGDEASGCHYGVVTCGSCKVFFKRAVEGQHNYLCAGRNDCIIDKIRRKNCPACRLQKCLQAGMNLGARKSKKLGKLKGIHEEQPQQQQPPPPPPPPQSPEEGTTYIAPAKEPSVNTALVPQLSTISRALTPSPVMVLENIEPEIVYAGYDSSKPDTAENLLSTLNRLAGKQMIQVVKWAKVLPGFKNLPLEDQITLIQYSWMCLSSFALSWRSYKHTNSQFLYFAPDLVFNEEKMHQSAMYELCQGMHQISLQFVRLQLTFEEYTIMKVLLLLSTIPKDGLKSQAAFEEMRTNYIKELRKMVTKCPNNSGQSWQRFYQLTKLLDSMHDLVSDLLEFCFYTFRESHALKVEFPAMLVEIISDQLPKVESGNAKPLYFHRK

[3] = species on record: Homo sapiens; experiment: Selectivity ratio of human GR over human PR
[4] = system: HFF; experiment: Antiinflammatory activity assessed as inhibition of IL6 production in HFF cells by transrepression assay relative to dexamethasone; format: functional, Homo sapiens
[5] = system: HFF; experiment: Antiinflammatory activity assessed as upregulation of aromatase in HFF cells by transactivation assay; format: functional, cell-based; settings: Homo sapiens
[6] = system: HFF; experiment: Antiinflammatory activity assessed as inhibition of IL1 stimulated IL6 production in HFF cells by transrepression assay; format: functional, cell-based; settings: Homo sapiens
[7] = system: HFF; experiment: Antiinflammatory activity assessed as upregulation of aromatase in HFF cells by transactivation assay relative to dexamethasone; format: functional, Homo sapiens; parameters: concentration or dose not given beside the values
[8] = molecular target: T3, Progesterone receptor (Homo sapiens, UniProt P06401); experiment: Displacement of TAMRA labeled mifepristone at human progesterone receptor in insect cell
T3 sequence (P06401 whole entry): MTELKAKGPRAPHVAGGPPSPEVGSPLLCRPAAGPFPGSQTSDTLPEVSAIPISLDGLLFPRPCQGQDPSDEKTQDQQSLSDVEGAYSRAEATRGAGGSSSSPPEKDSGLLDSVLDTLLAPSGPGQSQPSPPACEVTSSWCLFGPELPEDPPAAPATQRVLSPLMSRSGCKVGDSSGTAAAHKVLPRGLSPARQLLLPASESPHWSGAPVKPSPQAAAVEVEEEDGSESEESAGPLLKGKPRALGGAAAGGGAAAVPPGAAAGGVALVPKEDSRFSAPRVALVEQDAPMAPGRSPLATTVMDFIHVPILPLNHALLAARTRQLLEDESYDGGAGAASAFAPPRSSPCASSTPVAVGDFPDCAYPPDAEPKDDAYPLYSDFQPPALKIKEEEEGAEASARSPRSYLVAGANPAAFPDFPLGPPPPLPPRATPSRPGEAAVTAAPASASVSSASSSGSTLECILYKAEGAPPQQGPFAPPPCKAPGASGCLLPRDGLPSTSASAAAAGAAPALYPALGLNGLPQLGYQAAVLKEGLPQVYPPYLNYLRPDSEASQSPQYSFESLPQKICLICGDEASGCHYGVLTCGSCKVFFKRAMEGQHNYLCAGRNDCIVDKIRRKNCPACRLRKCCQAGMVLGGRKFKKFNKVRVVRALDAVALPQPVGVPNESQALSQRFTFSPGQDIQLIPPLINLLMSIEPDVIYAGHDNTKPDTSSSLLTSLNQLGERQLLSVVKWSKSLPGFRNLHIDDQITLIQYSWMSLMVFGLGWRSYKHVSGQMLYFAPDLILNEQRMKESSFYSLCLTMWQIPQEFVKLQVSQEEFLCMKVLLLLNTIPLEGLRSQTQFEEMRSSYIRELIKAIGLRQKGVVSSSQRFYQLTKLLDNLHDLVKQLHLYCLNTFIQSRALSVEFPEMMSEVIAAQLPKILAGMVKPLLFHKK

Structure (SMILES)	pIC50 [1]	pIC50 [2]	Ratio IC50 [3]	Efficacy [4] [%]	pEC50 [5]	pEC50 [6]	Activity [7] [%]	pIC50 [8]
COc1ccc(F)cc1C(C)(C)CC(O)(Cc1cc(C)cc(C)c1C#N)C(F)(F)F (stereo not drawn)	8.10	6.60	225	83	6.60	7.40	75	5.74
COc1ccc(F)cc1C(C)(C)CC(O)(Cc1ccc(C#N)c2ccccc12)C(F)(F)F (stereo not drawn)	7.68	6.37		92	6.59	7.15	103	6.49
COc1ccc(F)cc1C(C)(C)CC(O)(Cc1cc(C)c(C#N)c(C)c1)C(F)(F)F (stereo not drawn)	7.96	6.52	35	95	8.10	8.40	115	6.41
